This note sets out measurements from patent US12303509B2, “Compounds for the treatment of BRAF-associated diseases and disorders” (Pfizer Inc., priority 2020, dated 2025).

Series [1] relates to WM3629 cells (BRAF D594G/NRAS G12D). As to the kind of experiment: Proliferation assay (CellTiter-Glo) in WM3629 cells. It is filed as cell-based. The note with it: 3-5 day incubation. Here is the method:
The compounds of Example 13, Example 14 and Example 126 were evaluated in a proliferation assay in two mutant BRAF Class III cell lines: NCI-H1666 (BRAF^G466V) and WM3629 cells (BRAF^D594G/NRAS^G12D). NCI-H1666 cells were obtained from the American Type Culture Collection (ATCC, Rockville, MD) and WM3629 cells were obtained from Rockland Immunochemicals (Limerick, PA). Cells were maintained in RPMI growth medium containing 10% FBS.
Cells were harvested according to standard protocols, counted, and plated onto flat-bottom, 96-well tissue culture plates (Costar #3599) at 2000-5000 cells/well in 100 μL/well of growth medium containing 10% FBS. Cells were incubated at 37° C. with 5% CO2 overnight then treated with inhibitors prepared as a 9-point, 1:3.33 fold dilution series with final compound concentrations ranging from 66 pM-10 μM and a constant DMSO concentration of 0.25%. Control wells contained 0.25% DMSO alone. After a 3-5 day incubation at 37° C., 5% CO2, cell viability was determined by adding 100 μL CellTiter-Glo® Reagent (Promega) to each well and incubated for 15 minutes at room temperature. “Day 0” controls were determined by performing CellTiter-Glo© assay on DMSO control wells at the time of compound treatment (“Day 0” control=0 POC). Luminescence was measured on a Cytation 5 plate reader (BioTek) and values were converted to POC using the following equation:
[formula] • Where: • Xmax Average DMSO Controls • Xmin Average “Day 0” DMSO Controls • IC50 values were calculated using a 4-parameter fit in XLfit software and are shown in Table A2.
A general note: Cellular ATP, detected with luciferase, serves as a proxy for viable cell number.

Series [2] is described as follows: MDR1 LLC-PK1 and BCRP MDCKII permeability assay: permeability coefficient (Papp). It is filed as in vitro ADME. The source says: (§1) Final organic concentration in the assay was 1%.
In a further series the target is P-gp (MDR1) (Homo sapiens (Human), UniProt P08183). As to the kind of experiment: MDR1 LLC-PK1 permeability assay: efflux ratio. In kind it is in vitro ADME. The note with it: pig.
Source text: as §1

The nature of series [3]: PK (free brain-to-free plasma ratio) (mouse). It is filed as in vivo. The note with it: male CD-1 mice, oral gavage 10 mg/kg, unbound brain-to-unbound plasma, read-out: B/P ratio (free).

Where only a bound is given, the exact number is not on record here.

Chain of P-gp (MDR1) (P08183 whole entry, species assumed): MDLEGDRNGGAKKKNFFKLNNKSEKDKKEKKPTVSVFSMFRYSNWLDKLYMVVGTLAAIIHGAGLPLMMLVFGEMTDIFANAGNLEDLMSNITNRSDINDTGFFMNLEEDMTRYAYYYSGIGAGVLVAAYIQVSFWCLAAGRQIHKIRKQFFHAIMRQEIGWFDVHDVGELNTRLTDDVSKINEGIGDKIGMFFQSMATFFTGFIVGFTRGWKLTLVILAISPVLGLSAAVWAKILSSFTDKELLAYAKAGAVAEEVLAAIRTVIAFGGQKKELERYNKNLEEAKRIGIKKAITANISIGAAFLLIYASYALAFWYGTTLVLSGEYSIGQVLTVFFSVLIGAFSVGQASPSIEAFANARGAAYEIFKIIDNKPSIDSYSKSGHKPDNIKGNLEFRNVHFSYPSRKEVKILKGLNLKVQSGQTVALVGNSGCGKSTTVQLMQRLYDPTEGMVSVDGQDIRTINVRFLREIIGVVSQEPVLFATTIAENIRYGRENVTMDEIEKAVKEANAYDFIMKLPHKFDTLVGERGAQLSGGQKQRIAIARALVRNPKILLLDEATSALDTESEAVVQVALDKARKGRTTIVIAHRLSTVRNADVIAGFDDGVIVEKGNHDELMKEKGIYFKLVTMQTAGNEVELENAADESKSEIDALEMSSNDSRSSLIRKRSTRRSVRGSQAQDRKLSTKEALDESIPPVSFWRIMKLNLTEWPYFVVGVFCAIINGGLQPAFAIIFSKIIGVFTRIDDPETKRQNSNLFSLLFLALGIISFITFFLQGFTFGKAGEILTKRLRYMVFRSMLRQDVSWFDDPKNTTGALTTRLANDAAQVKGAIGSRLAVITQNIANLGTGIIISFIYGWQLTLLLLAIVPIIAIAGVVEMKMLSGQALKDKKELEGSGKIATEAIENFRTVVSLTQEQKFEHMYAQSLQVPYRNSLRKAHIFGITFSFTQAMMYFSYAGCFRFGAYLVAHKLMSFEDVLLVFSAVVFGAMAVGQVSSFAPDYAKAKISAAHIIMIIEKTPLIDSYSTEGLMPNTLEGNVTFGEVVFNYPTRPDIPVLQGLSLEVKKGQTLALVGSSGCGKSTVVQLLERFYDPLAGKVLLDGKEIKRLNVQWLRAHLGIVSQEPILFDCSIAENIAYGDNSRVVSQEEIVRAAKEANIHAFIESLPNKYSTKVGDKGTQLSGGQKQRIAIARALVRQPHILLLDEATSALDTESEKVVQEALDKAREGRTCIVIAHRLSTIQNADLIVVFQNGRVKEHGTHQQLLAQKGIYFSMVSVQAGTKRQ

`Cn1cnc2ccc(Nc3c(F)ccc(NS(=O)(=O)N4CC5CC4C5)c3Cl)c(F)c2c1=O` [Example 13, N-(2-chloro-4-fluoro-3-((5-fluoro-3-methyl-4-oxo-3,4-dihydroquinazolin-6-yl)amino)phenyl)-2-azabicyclo[2.1.1]hexane-2-sulfonamide] came in with an IC50 in series [1] of more than 10 µM. In series [2], this compound came in with a Papp at 2 h, 1 µM of 32 ×10⁻⁶ cm/s. The efflux ratio at 2 h, 1 µM on P-gp (MDR1) was determined as 1.5. Besides, in series [3], the Kp lay within 0.75 to 0.93.
The compound `Cn1cnc2ccc(Nc3c(F)ccc(NS(=O)(=O)N4CC[C@@H](F)C4)c3Cl)c(F)c2c1=O` [Example 14, (R)-N-(2-chloro-4-fluoro-3-((5-fluoro-3-methyl-4-oxo-3,4-dihydroquinazolin-6-yl)amino)phenyl)-3-fluoropyrrolidine-1-sulfonamide] had an IC50 in series [1] of more than 10 µM. Also, the Papp at 2 h, 1 µM in series [2] turned out to be 28 ×10⁻⁶ cm/s. Further, at P-gp (MDR1), the efflux ratio at 2 h, 1 µM came out at 3.2. Further, the Kp in series [3] was in the range of 0.13 to 0.39.

What is called IC50 is the concentration that gives 50% inhibition. The low end stands for greater potency in that assay, the high end for weaker potency in that assay. As usually defined, the Papp is a coefficient for how fast a substance crosses the barrier. The term efflux ratio denotes the permeability from basolateral to apical divided by that in the opposite direction, in the common usage.
